Molecular target: T1, human recombinant renin (Homo sapiens, UniProt P00797)
T1 sequence (P00797 67-406): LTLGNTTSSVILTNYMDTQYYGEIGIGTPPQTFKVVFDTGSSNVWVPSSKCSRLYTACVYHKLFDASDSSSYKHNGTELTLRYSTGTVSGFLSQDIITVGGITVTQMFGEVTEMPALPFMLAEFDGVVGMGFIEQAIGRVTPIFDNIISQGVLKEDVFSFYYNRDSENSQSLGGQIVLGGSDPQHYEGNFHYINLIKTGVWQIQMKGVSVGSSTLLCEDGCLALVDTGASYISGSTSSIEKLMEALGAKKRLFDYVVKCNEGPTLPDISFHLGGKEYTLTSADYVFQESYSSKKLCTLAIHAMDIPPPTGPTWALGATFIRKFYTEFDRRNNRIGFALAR
Assay: Inhibition of human recombinant renin (enzymatic in vitro assay, Ang I detected by EIA)
Format: biochemical
Settings: human recombinant renin 0.16 ng/mL, synthetic human angiotensin(1-14) 0.5 μM, 37° C. for 3 h
Procedure: Inhibition of Human Recombinant Renin by the Compounds of the Invention The enzymatic in vitro assay was performed in 384well polypropylene plates (Nunc). The assay buffer consisted of 10 mM PBS (Gibco BRL) including 1 mM EDTA and 0.1% BSA. The incubates were composed of 50 μL per well of an enzyme mix and 2.5 μL of renin inhibitors in DMSO. The enzyme mix was premixed at 4° C. and consists of the following components: • human recombinant renin (0.16 ng/mL).synthetic human angiotensin(1-14) (0.5 μM) • hydroxyquinoline sulfate (1 mM) The mixtures were then incubated at 37° C. for 3 h. To determine the enzymatic activity and its inhibition, the accumulated Ang I was detected by an enzyme immunoassay (EIA) in 384well plates (Nunc). 5 μL of the incubates or standards were transferred to immuno plates which were previously coated with a covalent complex of Ang I and bovine serum albumin (Ang I—BSA). […] of Ang I-antibodies in essaybuffer above including 0.01% Tween 20 were added and a primary incubation made at 4° C. overnight The plates were washed 3 times with PBS including 0.01% Tween 20, and then incubated for 2 h at rt with an antirabbit-peroxidase coupled antibody (WA 934, Amersham).

SMILES: COCCCOc1nccc(CN(C(=O)C2=C(c3ccc(CCCOc4c(F)ccc(F)c4Cl)cc3)C[C@@H]3CC[C@H]2N3)C2CC2)c1C (racemic) [Example 1, (rac.)-(1R*,5S*)-3-{4-[3-(2-Chloro-3,6-difluorophenoxy)propyl]phenyl}-8-azabicyclo[3.2.1]oct-2-ene-2-carboxylic acid cyclopropyl-[2-(3-methoxy-propoxy)-3-methylpyridin-4-ylmethyl]amide]
- IC50: 0.79 nM

From patent US20070135406A1, “Diazabicyclononene and tetrahydropyridine derivatives with a new side-chain” (priority 2003, published 2007)
